Reference: patent publication US20190300882A1, “METHODS OF TREATING NEUROBLASTOMA AND REAGENTS THEREFOR” (GARVAN INSTITUTE OF MEDICAL RESEARCH, priority 2016, published 2019)

What was measured:
Assay type in all cases: cell-based
KELLY cells [1] = assay: Secondary validation screen of lethal miRNAs, cell viability; details: miRNA mimic alone
Method: (§1) Each of the cell lines were reverse transfected in 384-well plate format with 25 nM of a miRNA from the Dharmacon miRNA mimic or inhibitor libraries (version 16.0) using liquid-handling robot Calliper Sciclone ALH3000 according to the conditions described in Table 3. After 24 hours, media was changed using BioTek 406, and 144 hours post-transfection, cell viability was determined using CellTiter-Glo luminescent assay (Promega) at 1:2 dilution. Luminescence measurements were taken on the Synergy H4 high-throughput multimode microplate reader. All screens were performed in duplicates.
(§2) The secondary validation screens were performed in accordance with the genome-wide screens described in Example 1 and Example 2, respectively, with the exception that an additional MYCN-amplified neuroblastoma cell line (SK-N-DZ) was added to each screen.
(§3) Furthermore, five additional non-active miRNAs discovered to have no measureable effect across all treatment groups of the genome-wide screen (‘non-lethal’ miRNAs) were included as negative controls.

SHEP cells [2] = assay: as above; details: miRNA mimic alone
Method: as §1, §2, §3

SHEP cells [3] = assay: Primary functional miRNA mimic screen, CellTiter-Glo cell viability; details: miRNA mimic 25 nM alone, 144 hours post-transfection
Text: Breast cancer cell lines (MDA-MB-231, MDA-MB-468, SK-BR-3; BT474) and prostate cancer cell lines (PC3, DU145) were obtained from American Type Culture Collection (ATCC). Neuroblastoma cell lines (KELLY, SHEP) were received from Children's Cancer Institute (CCIA). The KELLY cells were selected as a MYCN amplified neuroblastoma cell line and the SHEP cells were selected as a MYCN wild-type neuroblastoma cell line.
All breast and prostate cancer cell lines were cultivated in RPMI media supplemented with 10% FCS, HEPES, and insulin. The neuroblastoma cell lines, KELLY, SHEP, were grown in 10% FCS/RPMI and 10% FCS/DMEM, respectively.
as §1
Raw viability was normalised to a nontargeting control (OTP) or mock wells, and death genes or controls inducing varying levels of death were used to monitor transfection efficiency and to define dynamic range in each screen (FIG. 1). To define screen hits, normalised viability scores were binned in the following manner: CV1 bin included candidates with viability >=0.8; CV2 bin included candidates with viability <0.8 and >0.5, and LC bin was assigned to candidates with normalised viability <=0.5. Only LC candidates were defined as screen hits.

KELLY cells [4] = assay: as above; details: miRNA mimic 25 nM alone, 144 hours post-transfection
Text: Breast cancer cell lines (MDA-MB-231, MDA-MB-468, SK-BR-3; BT474) and prostate cancer cell lines (PC3, DU145) were obtained from American Type Culture Collection (ATCC). Neuroblastoma cell lines (KELLY, SHEP) were received from Children's Cancer Institute (CCIA). The KELLY cells were selected as a MYCN amplified neuroblastoma cell line and the SHEP cells were selected as a MYCN wild-type neuroblastoma cell line. All breast and prostate cancer cell lines were cultivated in RPMI media supplemented with 10% FCS, HEPES, and insulin. […] Each of the cell lines were reverse transfected in 384-well plate format with 25 nM of a miRNA from the Dharmacon miRNA mimic or inhibitor libraries (version 16.0) using liquid-handling robot Calliper Sciclone ALH3000 according to the conditions described in Table 3. […] Luminescence measurements were taken on the Synergy H4 high-throughput multimode microplate reader. All screens were performed in duplicates. Raw viability was normalised to a nontargeting control (OTP) or mock wells, and death genes or controls inducing varying levels of death were used to monitor transfection efficiency and to define dynamic range in each screen (FIG. 1). To define screen hits, normalised viability scores were binned in the following manner: CV1 bin included candidates with viability >=0.8; […] Only LC candidates were defined as screen hits.

RBFOX2 mRNA = assay: qPCR of target mRNA in KELLY cells transfected with miRNA mimic; details: 25 nM mimic, 96 h after transfection
Method: (§4) KELLY cells were transfected with let-7b-5p, miR-101-3p, and miR-202-3p mimics and real-time PCR performed to determine any changes in mRNA expression levels of HAND1, RGS16, RBFOX2, and ACVR2B. Briefly, KELLY cells were grown in 10% FCS/RPMI and transfected with 25 nM of let-7b-5p, miR-101-3p or miR-202-3p mimic using Dharmafect 1 (DF1) transfection reagent. 96 h after transfection, the cells were harvested and total RNA was extracted using miRneasy kit (Qiagen). RNA was then subjected to reverse transcription to generate cDNA. Quantification of gene expression was then performed using qPCR and Taqman probes and primers for HAND1, RGS 16, RBFOX2, and ACVR2B. The levels of gene expression for HAND1, RGS16, RBFOX2, and ACVR2B were normalised to the housekeeping genes B2M and GAPDH

RGS16 mRNA = assay: as above; details: 25 nM mimic, 96 h after transfection
Method: as §4

[5] = test system: SK-N-DZ MYCN-amplified neuroblastoma cell line; assay: Secondary validation screen of lethal miRNAs, additional cell line, cell viability; details: miRNA mimic alone
Method: as §1, §2, §3

Substance	Secondary screen Viability (% of control) KELLY (KELLY cells [1])	Secondary screen Viability (% of control) SHEP (SHEP cells [2])	Primary screen Viability (% of control) SHEP (SHEP cells [3])	Primary screen Viability (% of control) KELLY (KELLY cells [4])	RBFOX2 mRNA levels (RBFOX2 mRNA)	RGS16 mRNA levels (RGS16 mRNA)	Additional cell line Viability (% of control) SKNDZ [5]
hsa-miR-101-3p (UACAGUACUGUGAUAACUGAA; chemistry not given here; listed as Homo sapiens)	7 % of control	69 % of control	58 % of control	6 % of control	did not affect	did not affect	72 % of control
hsa-miR-634 (guide AACCAGCACCCCAACUUUGGAC; chemistry not given here; listed as Homo sapiens)	13 % of control	12 % of control	8 % of control	7 % of control			41 % of control
hsa-miR-654-5p (guide UGGUGGGCCGCAGAACAUGUGC; chemistry not given here; listed as Homo sapiens)	7 % of control	45 % of control	30 % of control	6 % of control			28 % of control
hsa-miR-876-3p (guide UGGUGGUUUACAAAGUAAUUCA; chemistry not given here; listed as Homo sapiens)	6 % of control	51 % of control	94 % of control	6 % of control			48 % of control
hsa-miR-892b (guide CACUGGCUCCUUUCUGGGUAGA; chemistry not given here; listed as Homo sapiens)	3 % of control	34 % of control	30 % of control	5 % of control			54 % of control
hsa-miR-1231 (GUGUCUGGGCGGACAGCUGC; chemistry not given here; listed as Homo sapiens)	48 % of control	46 % of control	15 % of control	36 % of control			98 % of control
hsa-miR-1262 (AUGGGUGAAUUUGUAGAAGGAU; chemistry not given here; listed as Homo sapiens)	8 % of control	42 % of control	31 % of control	8 % of control			13 % of control
